Test results published in patent publication US20220296595A1, “CDK INHIBITORS” (QILU REGOR THERAPEUTICS INC., priority 2019, published 2022).

target: T1, CDK4/CyclinD1 (Homo sapiens, UniProt P11802); assay: Assay for inhibition of CDK4/CyclinD1 (Caliper microfluidic kinase assay); type: biochemical; conditions: CDK4/CyclinD1, 200 μM ATP
T1 construct: purchased Thermofisher PR8064A
Outline: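 Caliper microfluidic mobility-shift assay tracking phosphorylation of 1 μM FL-34 peptide by 1 nM CDK4/CyclinD1 with 200 μM ATP in HEPES pH 7.5 buffer with 10 mM MgCl2. Reaction ran 3 h at room temperature, was stopped with EDTA, and IC50 came from a 4-parameter sigmoidal fit.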

T1 sequence (P11802 whole entry): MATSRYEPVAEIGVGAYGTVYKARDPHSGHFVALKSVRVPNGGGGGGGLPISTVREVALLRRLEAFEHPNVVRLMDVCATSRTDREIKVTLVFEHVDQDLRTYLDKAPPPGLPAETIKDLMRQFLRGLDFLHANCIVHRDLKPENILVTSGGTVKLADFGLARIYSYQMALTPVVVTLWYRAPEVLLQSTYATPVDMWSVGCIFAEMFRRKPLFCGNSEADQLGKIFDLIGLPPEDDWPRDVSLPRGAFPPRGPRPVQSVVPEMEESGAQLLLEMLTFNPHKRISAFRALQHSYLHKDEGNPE
T1 sequence (P24385 whole entry partner): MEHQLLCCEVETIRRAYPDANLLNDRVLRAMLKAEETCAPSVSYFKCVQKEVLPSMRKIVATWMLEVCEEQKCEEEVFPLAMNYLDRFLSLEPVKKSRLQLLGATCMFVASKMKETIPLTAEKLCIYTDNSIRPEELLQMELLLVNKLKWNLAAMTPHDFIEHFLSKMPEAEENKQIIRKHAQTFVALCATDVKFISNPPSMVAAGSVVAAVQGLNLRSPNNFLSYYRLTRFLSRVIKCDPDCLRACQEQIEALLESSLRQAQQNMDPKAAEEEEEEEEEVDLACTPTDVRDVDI

| Structure (SMILES) | IC50 [nM] |
| --- | --- |
| COc1nc(-c2nc(Nc3ccc(N4CCN(C5COC5)CC4=O)cn3)ncc2F)cc2c1ncn2C(C)C [compound 129] | < 10 |
| CC(C)c1cnn2ccc(-c3nc(Nc4ccc(N5CCN(C6CNC6)CCC5=O)cn4)ncc3F)cc12 [compound 42] | < 10 |
| CNC(=O)c1ccc(Nc2nccc(-c3ccn4ncc(C(C)C)c4c3)n2)cc1 [compound 166] | < 10 |
| CC(C)n1cnc2c1CN(c1ccnc(Nc3ccc(N4CCC(C)(N)CC4=O)cn3)n1)CC2 (stereo not shown) [compound 244] | < 10 |
| CC(C)c1cnn2ccc(-c3ccnc(Nc4ccc(N5CCC(N6CCC6)CC5=O)cn4)n3)cc12 (stereo not shown) [compound 171] | < 10 |
| CC(C)n1cnc2c(F)nc(-c3ccnc(Nc4ccc(N5CCC(C)(N)CC5=O)cc4)n3)cc21 (stereo not shown) [compound 280] | < 10 |
| COc1nc(-c2ccnc(Nc3ccc(N4CC5CC4CN5)cn3)n2)cc2c1ncn2C(C)C (stereo not shown) [compound 109] | < 10 |
| CC(C)c1cnn2ccc(-c3ccnc(Nc4ccc(N5CCN(CCO)CC5=O)cn4)n3)cc12 [compound 237] | < 10 |

target: T2, CDK6/CyclinD3 (Homo sapiens, UniProt Q00534); assay: Assay for inhibition of CDK6/CyclinD3 (Caliper microfluidic kinase assay); type: biochemical; conditions: CDK6/CyclinD3, 300 μM ATP
T2 construct: purchased Carna 04-107
T2 sequence (Q00534 whole entry): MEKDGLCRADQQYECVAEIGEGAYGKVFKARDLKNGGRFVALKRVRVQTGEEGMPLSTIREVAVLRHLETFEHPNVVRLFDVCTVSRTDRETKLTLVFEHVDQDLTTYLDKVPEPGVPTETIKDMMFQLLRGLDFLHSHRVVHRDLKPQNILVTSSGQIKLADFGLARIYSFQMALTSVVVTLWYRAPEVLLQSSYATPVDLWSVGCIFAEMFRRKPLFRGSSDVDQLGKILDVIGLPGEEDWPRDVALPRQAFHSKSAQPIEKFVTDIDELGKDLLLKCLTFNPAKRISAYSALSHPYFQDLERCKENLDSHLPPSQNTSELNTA
T2 sequence (P30281 whole entry partner): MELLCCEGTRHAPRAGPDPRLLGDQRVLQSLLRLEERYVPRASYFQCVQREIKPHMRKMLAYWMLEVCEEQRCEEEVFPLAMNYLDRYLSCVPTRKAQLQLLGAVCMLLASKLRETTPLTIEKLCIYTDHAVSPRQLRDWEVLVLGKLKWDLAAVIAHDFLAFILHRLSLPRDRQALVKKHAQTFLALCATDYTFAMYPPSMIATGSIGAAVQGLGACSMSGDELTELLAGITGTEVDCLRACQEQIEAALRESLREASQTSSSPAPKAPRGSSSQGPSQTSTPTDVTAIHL
Outline: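 Caliper mobility-shift readout of FAM-labelled peptide (FL-34, 1 μM) phosphorylation by 2 nM CDK6/CyclinD3 at 300 μM ATP in HEPES pH 7.5 buffer with MgCl2, DTT; 3 h at room temperature, EDTA stop. IC50 from 4-parameter sigmoidal fit.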

| Structure (SMILES) | IC50 [nM] |
| --- | --- |
| COc1nc(-c2nc(Nc3ccc(N4CCN(C5COC5)CC4=O)cn3)ncc2F)cc2c1ncn2C(C)C [compound 129] | 10 to 100 |
| CC(C)c1cnn2ccc(-c3nc(Nc4ccc(N5CCN(C6CNC6)CCC5=O)cn4)ncc3F)cc12 [compound 42] | 10 to 100 |
| CNC(=O)c1ccc(Nc2nccc(-c3ccn4ncc(C(C)C)c4c3)n2)cc1 [compound 166] | 10 to 100 |
| CC(C)n1cnc2c1CN(c1ccnc(Nc3ccc(N4CCC(C)(N)CC4=O)cn3)n1)CC2 (stereo not shown) [compound 244] | 100 to 1000 |
| CC(C)c1cnn2ccc(-c3ccnc(Nc4ccc(N5CCC(N6CCC6)CC5=O)cn4)n3)cc12 (stereo not shown) [compound 171] | 10 to 100 |
| CC(C)n1cnc2c(F)nc(-c3ccnc(Nc4ccc(N5CCC(C)(N)CC5=O)cc4)n3)cc21 (stereo not shown) [compound 280] | < 10 |
| COc1nc(-c2ccnc(Nc3ccc(N4CC5CC4CN5)cn3)n2)cc2c1ncn2C(C)C (stereo not shown) [compound 109] | 10 to 100 |
| CC(C)c1cnn2ccc(-c3ccnc(Nc4ccc(N5CCN(CCO)CC5=O)cn4)n3)cc12 [compound 237] | 10 to 100 |

target: T3, CDK2/CyclinE1 (Homo sapiens, UniProt P24941); assay: Assay for inhibition of CDK2/CyclinE1 (Caliper microfluidic kinase assay); type: biochemical; conditions: CDK2/CyclinE1, 100 μM ATP; read-out: CDK2 IC50
T3 construct: purchased SignalChem C29-18G
Outline: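 Caliper microfluidic mobility-shift assay: 5 nM CDK2/CyclinE1, 100 μM ATP, 5 μM FL-18 peptide (5-FAM-QSPKKG-NH2) in pH 7.5 HEPES buffer with MgCl2, DTT, BSA, Triton X-100. Incubated 3 hours at room temperature, EDTA-stopped; IC50 from 4-parameter sigmoidal fit.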

| Structure (SMILES) | IC50 [nM] |
| --- | --- |
| COc1nc(-c2nc(Nc3ccc(N4CCN(C5COC5)CC4=O)cn3)ncc2F)cc2c1ncn2C(C)C [compound 129] | > 1000 |
| CC(C)c1cnn2ccc(-c3nc(Nc4ccc(N5CCN(C6CNC6)CCC5=O)cn4)ncc3F)cc12 [compound 42] | 10 to 100 |
| CNC(=O)c1ccc(Nc2nccc(-c3ccn4ncc(C(C)C)c4c3)n2)cc1 [compound 166] | < 10 |
| CC(C)n1cnc2c1CN(c1ccnc(Nc3ccc(N4CCC(C)(N)CC4=O)cn3)n1)CC2 (stereo not shown) [compound 244] | 10 to 100 |
| CC(C)c1cnn2ccc(-c3ccnc(Nc4ccc(N5CCC(N6CCC6)CC5=O)cn4)n3)cc12 (stereo not shown) [compound 171] | < 10 |
| CC(C)n1cnc2c(F)nc(-c3ccnc(Nc4ccc(N5CCC(C)(N)CC5=O)cc4)n3)cc21 (stereo not shown) [compound 280] | < 10 |
| COc1nc(-c2ccnc(Nc3ccc(N4CC5CC4CN5)cn3)n2)cc2c1ncn2C(C)C (stereo not shown) [compound 109] | > 1000 |
| CC(C)c1cnn2ccc(-c3ccnc(Nc4ccc(N5CCN(CCO)CC5=O)cn4)n3)cc12 [compound 237] | 10 to 100 |

system: T47D breast cancer cells; assay: Anti-proliferation assay in T47D cell (Cyquant, day 6); type: cell-based, human; conditions: Homo sapiens, T47D, anti-proliferation, T47D cells; read-out: T47D IC50
Outline: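 Cells were grown in RPMI 1640 with 10% FBS at 37 °C and dosed the day after plating at ten concentrations, 10 μM to 0.51 nM in 3-fold steps. CyQuant fluorescence (ex 485/em 535 nm) was read on day 6. IC50 was fitted from baseline-subtracted viability curves, with the baseline read after overnight culture.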

| Structure (SMILES) | IC50 [nM] |
| --- | --- |
| COc1nc(-c2nc(Nc3ccc(N4CCN(C5COC5)CC4=O)cn3)ncc2F)cc2c1ncn2C(C)C [compound 129] | 100 to 500 |
| CC(C)c1cnn2ccc(-c3nc(Nc4ccc(N5CCN(C6CNC6)CCC5=O)cn4)ncc3F)cc12 [compound 42] | < 100 |
| CNC(=O)c1ccc(Nc2nccc(-c3ccn4ncc(C(C)C)c4c3)n2)cc1 [compound 166] | < 100 |
| CC(C)n1cnc2c1CN(c1ccnc(Nc3ccc(N4CCC(C)(N)CC4=O)cn3)n1)CC2 (stereo not shown) [compound 244] | 500 to 1000 |
| CC(C)c1cnn2ccc(-c3ccnc(Nc4ccc(N5CCC(N6CCC6)CC5=O)cn4)n3)cc12 (stereo not shown) [compound 171] | < 100 |
| CC(C)n1cnc2c(F)nc(-c3ccnc(Nc4ccc(N5CCC(C)(N)CC5=O)cc4)n3)cc21 (stereo not shown) [compound 280] | < 100 |
| COc1nc(-c2ccnc(Nc3ccc(N4CC5CC4CN5)cn3)n2)cc2c1ncn2C(C)C (stereo not shown) [compound 109] | < 100 |
| CC(C)c1cnn2ccc(-c3ccnc(Nc4ccc(N5CCN(CCO)CC5=O)cn4)n3)cc12 [compound 237] | < 100 |

system: phosphorylation of Retinoblastoma Protein (pRb Ser807/811 or Ser780) in T47D cells; assay: Inhibition of phosphorylation of retinoblastoma protein (pRb) in T47D cell (ELISA); type: cell-based, human; conditions: Homo sapiens, T47D, read-out: Phospho T47D Ser807 IC50, pRb Ser807 phosphorylation, T47D cells
Outline: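 T47D cells in RPMI 1640 + 10% FBS, adhered overnight, then treated 24 h with 3-fold compound titrations (top concentration […]). Lysates assayed by sandwich ELISA for pRb Ser807/811 or Ser780 with HRP/TMB detection. IC50 from 4-parameter sigmoidal fit.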

| Structure (SMILES) | IC50 [nM] |
| --- | --- |
| COc1nc(-c2nc(Nc3ccc(N4CCN(C5COC5)CC4=O)cn3)ncc2F)cc2c1ncn2C(C)C [compound 129] | < 100 |
| CC(C)c1cnn2ccc(-c3nc(Nc4ccc(N5CCN(C6CNC6)CCC5=O)cn4)ncc3F)cc12 [compound 42] | < 100 |
| CNC(=O)c1ccc(Nc2nccc(-c3ccn4ncc(C(C)C)c4c3)n2)cc1 [compound 166] | < 100 |
| CC(C)n1cnc2c1CN(c1ccnc(Nc3ccc(N4CCC(C)(N)CC4=O)cn3)n1)CC2 (stereo not shown) [compound 244] | 500 to 1000 |
| CC(C)c1cnn2ccc(-c3ccnc(Nc4ccc(N5CCC(N6CCC6)CC5=O)cn4)n3)cc12 (stereo not shown) [compound 171] | < 100 |
| CC(C)n1cnc2c(F)nc(-c3ccnc(Nc4ccc(N5CCC(C)(N)CC5=O)cc4)n3)cc21 (stereo not shown) [compound 280] | < 100 |
| COc1nc(-c2ccnc(Nc3ccc(N4CC5CC4CN5)cn3)n2)cc2c1ncn2C(C)C (stereo not shown) [compound 109] | < 100 |
| CC(C)c1cnn2ccc(-c3ccnc(Nc4ccc(N5CCN(CCO)CC5=O)cn4)n3)cc12 [compound 237] | < 100 |
